# Data taken from patent publication US12569502B2, “Use of bile acids and derivatives thereof in preparation of GPR39 agonist” (PEKING UNIVERSITY, priority 2019, dated 2026).
# Like-named read-outs stand apart in the source and are kept apart here.
# Key:
# Type in all cases: cell-based
# HEK293T cells = assay: FLIPR calcium imaging on HEK293T cells not expressing GPR39; details: 293T cells not expressing GPR39
# Experimental: (§1) Bile acids and derivatives thereof as listed in Table 1 below were dissolved in dimethyl sulfoxide (DMSO, Sigma Co.) solvent to formulate a stock solution of 50 mM, which was stored at −20° C. During calcium imaging with FLIPR, the drug was diluted with the above 4K solution into a working concentration of 400 μM, and packaged into another 96-well plate. The drug solution and the cell samples in Example 2.2 were placed into the designated position of the FLIPR instrument (MolecularDevices Co.) respectively. The instrument parameters were set so that 50 μL of the drug solution may be added into the culture wells within 2 s. The fluorescence recording result within the first 30 seconds was used as the baseline value. The FLIPR robot arm was programmed to automatically add bile acids and derivatives thereof into the cell sample culture wells at the 31st second. 1% of DMSO solvent was used as the blank control.
# The results of FLIPR calcium imaging experiment of the bile acids and derivatives thereof are shown in FIG. 1, wherein the horizontal coordinate represents the time, and the vertical coordinate represents the relative fluorescence intensity.
# [1] = target: T1, GPR39 receptors on m39-20 cell lines (Mus musculus, UniProt Q5U431, T447P); assay: FLIPR calcium imaging on m39-20 cell lines stably expressing murine-derived GPR39; details: for Bile acid + 4 μM zinc ions Efficacy / Only bile acid Efficacy: activation efficacy; for intracellular calcium signals in m39-20 cell lines: FIG. 1; for intracellular calcium signaling response in m39-20 cells: absence of zinc ions; for change of activation efficacy after the addition of zinc ions: Table 1, FIG. 2; for activation capacity on GPR39 receptors among the bile acids: dose curves
# T1 construct: P2A-mCherry (C); expressed in transfected cells
# T1 sequence (Q5U431 1-456 T447P): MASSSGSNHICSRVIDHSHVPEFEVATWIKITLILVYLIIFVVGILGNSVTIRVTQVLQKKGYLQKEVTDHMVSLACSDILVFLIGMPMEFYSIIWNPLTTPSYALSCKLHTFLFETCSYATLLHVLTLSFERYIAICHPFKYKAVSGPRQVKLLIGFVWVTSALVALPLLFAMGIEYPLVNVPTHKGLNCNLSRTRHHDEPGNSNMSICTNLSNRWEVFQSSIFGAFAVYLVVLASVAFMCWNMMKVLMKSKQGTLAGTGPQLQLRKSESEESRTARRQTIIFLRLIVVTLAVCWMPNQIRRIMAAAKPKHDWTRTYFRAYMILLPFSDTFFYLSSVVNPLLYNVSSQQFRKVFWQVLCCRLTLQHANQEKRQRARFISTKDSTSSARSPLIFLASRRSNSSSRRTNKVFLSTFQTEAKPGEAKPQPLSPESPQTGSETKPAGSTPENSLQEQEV
# Description: Intracellular calcium imaging is a routine technique to study cell functions, the basic principle of which is to detect the concentration of the calcium ion in tissues or cells using a calcium indicator, thereby reflecting certain reactions in the tissues or cells. In the present application, the intracellular calcium released from a cell line that stably or transiently expresses GPR39 is detected using Fluo8-AM, a calcium fluorescent indicator, so as to determine the activation of the GPR39 receptor by the bile acid and derivative thereof.
# HEK293T cells (purchased from ATCC) were seeded in a 6-well plate (coming Co.) at an appropriate density (about 0.5-2×10^5/well). When the cell density reached above 30%, the plasmid PLVXK-mGPR39-P2A-mCherry was transfected with Lipofectamine 3000 (Invitrogen) at a concentration of 2 μg per well. The cells were passaged 24 hours after transfection, the puromycin (gibco) was added into the medium at a concentration of 2 μg/mL for antibiotic screening of cells. After 2-4 days of continuous screening, the cells screened for puromycin resistance were trypsinized and screened by flow cytometry for monoclones with red fluorescence. And these monoclones were seeded in a 96-well plate and cultured in a medium without puromycin for around 10 days. Cell colonies with red fluorescence were sorted under a fluorescence microscope, trypsinized and then passaged and expanded in a 6-well plate. Cell lines m39-20 stably expressing murine-derived GPR39 were obtained through the above methods.
# Calcium dye Fluo8-AM (ATT bioquest Co.) was dissolved in DMSO solvent to formulate a stock solution of 1 μg/μL. […] After then, the calcium dye working solution was replaced with the 4K solution (50 μL per well), and acclimated for 5 min at room temperature for the subsequent calcium imaging experiment.
# as §1, with “The drug solution and the cell samples in Example 2.2 were placed into the designated position of the FLIPR instrument (MolecularDevices Co.) respectively.” left out
# After that, the calcium dye working solution was replaced with a 4K solution containing 4 μM zinc ions (50 μL per well), followed by acclimation for 5 min at room temperature.
# [2] = target: T2, human GPR39 receptors on human GPR39-2 cell lines (Homo sapiens, UniProt O43194); assay: FLIPR calcium imaging on human GPR39-2 cell line stably expressing human GPR39; details: for intracellular calcium signal response of human GPR39-2: FIG. 9; for EC50: human GPR39-2 cells
# T2 construct: P2A-mCherry (C)
# T2 sequence (O43194 1-453): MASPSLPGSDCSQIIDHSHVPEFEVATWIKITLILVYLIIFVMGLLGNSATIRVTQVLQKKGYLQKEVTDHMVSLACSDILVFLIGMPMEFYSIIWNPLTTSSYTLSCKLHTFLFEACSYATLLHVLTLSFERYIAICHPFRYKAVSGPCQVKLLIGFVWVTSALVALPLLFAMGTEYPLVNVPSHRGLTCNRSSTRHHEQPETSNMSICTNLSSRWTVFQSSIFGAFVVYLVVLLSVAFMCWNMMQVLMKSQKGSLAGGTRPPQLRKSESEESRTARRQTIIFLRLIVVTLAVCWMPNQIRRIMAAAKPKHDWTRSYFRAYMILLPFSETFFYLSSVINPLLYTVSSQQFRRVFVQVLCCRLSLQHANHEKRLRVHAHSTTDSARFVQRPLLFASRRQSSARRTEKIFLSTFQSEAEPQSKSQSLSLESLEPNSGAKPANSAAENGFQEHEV
# Description: The human GPR39 cDNA vector was purchased from WZ Biosciences Inc., Shandong. It was cloned onto a lentiviral vector PLVXK-hGPR39-P2A-mCherry (FIG. 10) through PCR amplification using primers hGPR39-F (which sequence was shown as set forth in SEQshown as set forth in SEQ ID NO: 15) and hGPR39-R (which sequence was shown as set forth in SEQ shown as set forth in SEQ ID NO: 16), in which the sequence of the target gene human GPR39 cDNA was shown as set forth in SEQ shown as set forth in SEQ ID NO: 14. A cell line human GPR39-2 stably expressing human GPR39 gene was constructed according to the method of Example 1.
# [3] = Bile acid + 4 μM zinc ions EC50, m39-20 cells, 4 μM zinc ions
# [4] = m39-20 cells, no zinc ions, read-out: Only bile acid EC50
"activation of GPR39 receptors in the presence of zinc ions ([1]; m39-20 cells, 4 μM zinc ions)",Compound,calcium signals on HEK293T cells not expressing GPR39 (HEK293T cells),"EC50 [1, 3] [µM]","Bile acid + 4 μM zinc ions Efficacy ([1]; m39-20 cells, 4 μM zinc ions) [%]","Only bile acid Efficacy ([1]; m39-20 cells, no zinc ions) [%]","EC50 [1, 4] [µM]",intracellular calcium signal response of human GPR39-2 [2],intracellular calcium signals in m39-20 cell lines [1],intracellular calcium signaling response in m39-20 cells [1],change of activation efficacy after the addition of zinc ions ([1]; m39-20 cells),activation capacity on GPR39 receptors among the bile acids ([1]; m39-20 cells),"EC50 ([2]; no added zinc ions, read-out: EC50 Only agonist) [µM]","EC50 ([2]; read-out: EC50 Agonist + 4 μM zinc ions, 4 μM zinc ions) [µM]"
capable of activating GPR39 receptors,"C[C@H](CCC(=O)O)[C@H]1CC[C@H]2[C@@H]3[C@H](O)C[C@@H]4C[C@H](O)CC[C@]4(C)[C@H]3CC[C@]12C [CDCA, Chenodeoxycholic acid]",may induce observable calcium signals,75.1 ± 7.6,85 ± 5.2,0,> 200,,,,,,,
capable of activating GPR39 receptors,"C[C@H](CCC(=O)O)[C@H]1CC[C@H]2[C@@H]3CC[C@@H]4C[C@H](O)CC[C@]4(C)[C@H]3C[C@H](O)[C@]12C [DCA, Deoxycholic acid]",may induce observable calcium signals,58.4 ± 10,93.1 ± 1.4,0,> 200,,,,,,,
,C[C@H](CCC(=O)NCC(=O)O)[C@H]1CC[C@H]2[C@@H]3CC[C@@H]4C[C@H](OS(=O)(=O)O)CC[C@]4(C)[C@H]3CC[C@]12C [GLCAS],,8 ± 1.8,110.8 ± 4.1,98.8 ± 4.6,47.9 ± 9.4,capable of inducing intracellular calcium signal response,varying extents of intracellular calcium signals,strong intracellular calcium signaling response,increases slightly,strongest activation capacity,,
,C[C@H](CCC(=O)NCCS(=O)(=O)[O-])[C@H]1CC[C@H]2[C@@H]3CC[C@@H]4C[C@H](OS(=O)(=O)[O-])CC[C@]4(C)[C@H]3CC[C@]12C.[Na+].[Na+] [TLCAS],,,,,,capable of inducing intracellular calcium signal response,varying extents of intracellular calcium signals,strong intracellular calcium signaling response,increases slightly,strongest activation capacity,69.4 ± 5,9.6 ± 6.3
,C[C@H](CCC(=O)O)[C@H]1CC[C@H]2[C@@H]3[C@@H](O)C[C@@H]4C[C@H](OS(=O)(=O)O)CC[C@]4(C)[C@H]3CC[C@]12C [UDCAS],,68.6 ± 16.3,84.7 ± 2.4,0,> 200,,varying extents of intracellular calcium signals,,obviously improved,,,
